Ki data for twelve molecules are collected here from BindingDB's records for doi:10.1124/jpet.102.047092 (Case Western Reserve University, 2003).

Experiment [1] concerns the target T1, Muscarinic acetylcholine receptor M4 (Homo sapiens, UniProt P08173).
T1 sequence (P08173 whole entry): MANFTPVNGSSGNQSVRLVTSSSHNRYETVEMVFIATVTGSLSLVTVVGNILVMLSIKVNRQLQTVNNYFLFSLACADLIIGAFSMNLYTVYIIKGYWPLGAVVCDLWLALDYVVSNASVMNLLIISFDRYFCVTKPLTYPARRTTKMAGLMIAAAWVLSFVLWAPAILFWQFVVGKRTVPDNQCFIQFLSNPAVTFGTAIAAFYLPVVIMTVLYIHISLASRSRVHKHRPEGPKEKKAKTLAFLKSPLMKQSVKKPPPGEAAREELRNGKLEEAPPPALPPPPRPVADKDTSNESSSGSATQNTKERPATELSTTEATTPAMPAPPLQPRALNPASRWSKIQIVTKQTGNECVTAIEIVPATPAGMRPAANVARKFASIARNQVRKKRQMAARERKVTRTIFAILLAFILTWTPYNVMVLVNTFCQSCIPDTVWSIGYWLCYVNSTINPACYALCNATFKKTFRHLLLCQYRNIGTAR

For experiment [2], the target named is Glutamate receptor ionotropic, NMDA 1 (Rattus norvegicus, UniProt P35439).
Experiment [3] has as its target 5-hydroxytryptamine receptor 6 (Homo sapiens, UniProt P50406).
In experiment [4] the target is D(1B) dopamine receptor (Homo sapiens, UniProt P21918).
Experiment [5] concerns the target T2, 5-hydroxytryptamine receptor 2C (Rattus norvegicus, UniProt P08909).
T2 sequence (P08909 whole entry): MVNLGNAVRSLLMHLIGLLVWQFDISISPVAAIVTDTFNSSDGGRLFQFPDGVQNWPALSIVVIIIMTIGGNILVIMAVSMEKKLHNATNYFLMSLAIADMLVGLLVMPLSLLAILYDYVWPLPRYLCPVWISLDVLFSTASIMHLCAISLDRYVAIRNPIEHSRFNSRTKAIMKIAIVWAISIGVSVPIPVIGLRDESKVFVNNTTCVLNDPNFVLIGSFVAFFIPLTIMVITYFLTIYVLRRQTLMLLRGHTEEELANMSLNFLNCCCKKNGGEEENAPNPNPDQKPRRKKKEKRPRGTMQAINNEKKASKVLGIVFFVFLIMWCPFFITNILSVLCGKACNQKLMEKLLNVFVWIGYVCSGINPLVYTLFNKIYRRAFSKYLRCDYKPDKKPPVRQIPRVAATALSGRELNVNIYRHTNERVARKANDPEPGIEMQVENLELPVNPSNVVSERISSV

In experiment [6] the target is Sodium-dependent dopamine transporter (Homo sapiens, UniProt Q01959).
Experiment [7] deals with T3, Alpha-1A adrenergic receptor (Homo sapiens, UniProt P35348).
T3 sequence (P35348 whole entry): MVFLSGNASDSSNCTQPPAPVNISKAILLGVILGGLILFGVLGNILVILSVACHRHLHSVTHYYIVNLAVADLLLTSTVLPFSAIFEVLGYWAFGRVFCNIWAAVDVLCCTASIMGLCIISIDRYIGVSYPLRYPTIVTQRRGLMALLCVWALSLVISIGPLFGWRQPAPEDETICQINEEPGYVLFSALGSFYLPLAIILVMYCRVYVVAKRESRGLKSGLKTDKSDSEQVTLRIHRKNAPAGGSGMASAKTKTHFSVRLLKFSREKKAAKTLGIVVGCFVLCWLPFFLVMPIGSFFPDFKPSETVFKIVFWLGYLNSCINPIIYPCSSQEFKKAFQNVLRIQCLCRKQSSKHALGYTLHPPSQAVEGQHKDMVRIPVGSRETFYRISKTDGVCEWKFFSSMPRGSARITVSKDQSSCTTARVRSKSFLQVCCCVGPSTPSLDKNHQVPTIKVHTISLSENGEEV

The target of experiment [8] is Muscarinic acetylcholine receptor M3 (Homo sapiens, UniProt P20309).
Experiment [9] addresses T4, 5-hydroxytryptamine receptor 3A (Homo sapiens, UniProt P46098).
T4 sequence (P46098 whole entry): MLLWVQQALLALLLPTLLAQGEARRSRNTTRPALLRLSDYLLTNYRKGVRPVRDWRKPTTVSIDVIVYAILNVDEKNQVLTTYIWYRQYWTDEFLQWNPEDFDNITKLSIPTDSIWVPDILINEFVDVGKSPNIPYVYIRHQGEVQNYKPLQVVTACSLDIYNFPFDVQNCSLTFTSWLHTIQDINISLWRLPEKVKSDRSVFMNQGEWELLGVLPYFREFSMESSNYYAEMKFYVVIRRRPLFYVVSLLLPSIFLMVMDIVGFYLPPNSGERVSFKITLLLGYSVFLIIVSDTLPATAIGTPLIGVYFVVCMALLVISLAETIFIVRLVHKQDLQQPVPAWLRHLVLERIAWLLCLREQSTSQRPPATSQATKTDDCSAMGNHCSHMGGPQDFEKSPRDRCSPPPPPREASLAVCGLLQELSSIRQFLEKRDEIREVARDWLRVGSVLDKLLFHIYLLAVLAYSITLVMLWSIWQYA

Experiment [10] addresses T5, Alpha-2A adrenergic receptor (Homo sapiens, UniProt P08913).
T5 sequence (P08913 whole entry): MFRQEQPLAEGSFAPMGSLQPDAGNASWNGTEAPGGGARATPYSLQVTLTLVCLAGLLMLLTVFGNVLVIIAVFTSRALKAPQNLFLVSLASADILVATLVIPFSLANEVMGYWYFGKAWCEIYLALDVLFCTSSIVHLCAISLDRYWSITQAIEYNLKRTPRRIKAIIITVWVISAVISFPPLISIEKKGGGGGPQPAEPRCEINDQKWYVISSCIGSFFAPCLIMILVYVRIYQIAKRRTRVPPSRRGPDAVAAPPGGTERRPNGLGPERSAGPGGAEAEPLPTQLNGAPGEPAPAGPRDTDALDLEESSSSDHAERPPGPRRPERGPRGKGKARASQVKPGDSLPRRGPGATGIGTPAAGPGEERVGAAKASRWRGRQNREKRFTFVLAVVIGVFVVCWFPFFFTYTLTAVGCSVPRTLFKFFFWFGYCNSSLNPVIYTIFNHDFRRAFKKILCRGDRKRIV

Experiment [11] concerns the target 5-hydroxytryptamine receptor 7 (Homo sapiens, UniProt P34969).

“And” between values parts separate entries of the source, which are not always exact repeats. Equal entries are not always repeated.

Chain of 5-hydroxytryptamine receptor 6 (P50406 whole entry): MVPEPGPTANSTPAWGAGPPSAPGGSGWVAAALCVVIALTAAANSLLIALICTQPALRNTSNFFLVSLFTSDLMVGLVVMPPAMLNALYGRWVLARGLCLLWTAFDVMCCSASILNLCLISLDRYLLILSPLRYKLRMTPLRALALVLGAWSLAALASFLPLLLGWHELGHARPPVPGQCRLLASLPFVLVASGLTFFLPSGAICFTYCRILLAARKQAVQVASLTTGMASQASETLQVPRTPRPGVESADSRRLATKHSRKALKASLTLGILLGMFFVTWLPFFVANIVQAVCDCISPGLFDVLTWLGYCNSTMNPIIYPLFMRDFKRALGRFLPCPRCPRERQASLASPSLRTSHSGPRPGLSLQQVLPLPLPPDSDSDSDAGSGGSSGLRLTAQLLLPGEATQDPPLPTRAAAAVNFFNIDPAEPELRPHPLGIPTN
Chain of Muscarinic acetylcholine receptor M3 (P20309 whole entry): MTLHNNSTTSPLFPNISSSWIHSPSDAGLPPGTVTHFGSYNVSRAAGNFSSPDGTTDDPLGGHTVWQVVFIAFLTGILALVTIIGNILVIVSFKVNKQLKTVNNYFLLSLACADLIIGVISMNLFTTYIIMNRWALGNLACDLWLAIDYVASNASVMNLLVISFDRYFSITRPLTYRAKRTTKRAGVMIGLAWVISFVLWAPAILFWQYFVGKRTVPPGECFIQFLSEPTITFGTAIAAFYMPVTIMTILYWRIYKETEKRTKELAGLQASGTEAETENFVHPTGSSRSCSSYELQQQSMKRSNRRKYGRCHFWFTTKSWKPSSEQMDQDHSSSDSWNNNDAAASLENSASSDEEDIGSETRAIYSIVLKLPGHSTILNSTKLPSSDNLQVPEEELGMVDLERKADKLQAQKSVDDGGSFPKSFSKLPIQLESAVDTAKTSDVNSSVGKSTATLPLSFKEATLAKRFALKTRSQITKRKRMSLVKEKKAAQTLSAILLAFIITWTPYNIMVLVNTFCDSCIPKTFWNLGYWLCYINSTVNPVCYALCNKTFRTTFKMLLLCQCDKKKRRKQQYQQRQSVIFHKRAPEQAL
Chain of 5-hydroxytryptamine receptor 7 (P34969 whole entry): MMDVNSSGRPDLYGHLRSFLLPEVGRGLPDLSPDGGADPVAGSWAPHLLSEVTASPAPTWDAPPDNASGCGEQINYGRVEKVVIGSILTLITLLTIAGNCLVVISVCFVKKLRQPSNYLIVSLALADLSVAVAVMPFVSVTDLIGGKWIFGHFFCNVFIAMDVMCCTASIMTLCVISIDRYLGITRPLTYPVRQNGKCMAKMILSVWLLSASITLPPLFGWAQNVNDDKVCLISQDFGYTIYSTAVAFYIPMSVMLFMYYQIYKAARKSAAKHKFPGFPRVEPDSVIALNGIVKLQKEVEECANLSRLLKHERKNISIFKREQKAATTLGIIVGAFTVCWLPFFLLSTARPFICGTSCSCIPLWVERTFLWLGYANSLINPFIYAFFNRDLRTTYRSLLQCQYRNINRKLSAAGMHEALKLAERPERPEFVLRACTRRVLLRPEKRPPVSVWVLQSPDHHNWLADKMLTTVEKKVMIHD
Chain of D(1B) dopamine receptor (P21918 whole entry): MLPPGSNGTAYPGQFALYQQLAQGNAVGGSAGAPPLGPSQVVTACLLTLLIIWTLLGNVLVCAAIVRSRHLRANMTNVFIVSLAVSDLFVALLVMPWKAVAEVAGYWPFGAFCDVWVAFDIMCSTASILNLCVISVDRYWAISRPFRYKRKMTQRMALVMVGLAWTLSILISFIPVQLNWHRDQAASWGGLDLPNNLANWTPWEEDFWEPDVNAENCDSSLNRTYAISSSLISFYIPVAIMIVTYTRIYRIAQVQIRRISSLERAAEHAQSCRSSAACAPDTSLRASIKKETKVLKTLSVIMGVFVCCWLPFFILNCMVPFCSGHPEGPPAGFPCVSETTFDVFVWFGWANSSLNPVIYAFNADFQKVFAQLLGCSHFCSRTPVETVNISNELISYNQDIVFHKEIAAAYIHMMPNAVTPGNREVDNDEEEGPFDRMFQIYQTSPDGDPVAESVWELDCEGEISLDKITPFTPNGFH
Chain of Sodium-dependent dopamine transporter (Q01959 whole entry): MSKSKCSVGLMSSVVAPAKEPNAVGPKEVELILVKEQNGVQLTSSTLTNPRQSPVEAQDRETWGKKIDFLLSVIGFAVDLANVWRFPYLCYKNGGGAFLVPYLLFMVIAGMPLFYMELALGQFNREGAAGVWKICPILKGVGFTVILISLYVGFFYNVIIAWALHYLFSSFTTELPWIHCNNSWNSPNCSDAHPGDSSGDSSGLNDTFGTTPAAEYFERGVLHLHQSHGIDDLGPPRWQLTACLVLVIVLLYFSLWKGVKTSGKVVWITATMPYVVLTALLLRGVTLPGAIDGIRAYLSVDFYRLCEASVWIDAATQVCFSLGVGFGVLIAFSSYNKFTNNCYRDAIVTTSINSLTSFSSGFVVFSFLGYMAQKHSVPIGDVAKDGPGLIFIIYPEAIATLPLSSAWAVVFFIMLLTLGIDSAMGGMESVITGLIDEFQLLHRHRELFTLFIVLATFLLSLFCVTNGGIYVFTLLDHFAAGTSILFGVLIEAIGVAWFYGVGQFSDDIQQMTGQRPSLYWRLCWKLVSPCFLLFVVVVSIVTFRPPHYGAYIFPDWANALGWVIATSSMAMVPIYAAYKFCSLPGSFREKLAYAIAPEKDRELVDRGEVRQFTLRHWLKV

With `N[C@@H](CCS(=O)(=O)O)C(=O)O` (racemic), the Ki in [1], in [2], in [3], in experiment [4], in [5] and in experiment [6] was greater than 10 µM in each case. Moreover, the Ki in experiment [7], in experiment [8], in experiment [9], in experiment [10] and in experiment [11] was greater than 10 µM in each case.

Turning to `N[C@@H](CCS)C(=O)O` (racemic) [CAS_778], the Ki in experiment [1], in [2], in [3], in experiment [4], in experiment [5] and in experiment [6] was greater than 10 µM each time. Also, the Ki in experiment [7], in [8], in experiment [9], in experiment [10] and in experiment [11] was greater than 10 µM in each case.

Regarding `NC(CS(=O)O)C(=O)O` (configuration not stated) [CAS_109], the Ki in experiment [1], in experiment [2], in experiment [3], in experiment [4], in experiment [5] and in [6] was greater than 10 µM throughout. Moreover, the Ki in experiment [7], in experiment [8], in experiment [9], in experiment [10] and in experiment [11] was greater than 10 µM throughout.

Take `NC(CSSCC(N)C(=O)O)C(=O)O` (configuration not stated) [CAS_595]: the Ki (as a rule, the equilibrium dissociation constant of an inhibitor or competing ligand from its target) in experiment [1] was greater than 10 µM; in [2] it was > 10 µM and 3.24 µM; in experiment [3], greater than 10 µM; in experiment [4], greater than 10 µM; in experiment [5], greater than 10 µM; in [6], greater than 10 µM. Besides, the Ki in experiment [7], in experiment [8], in experiment [9], in [10] and in experiment [11] was greater than 10 µM in each case.

On to `N[C@@H](CS)C(=O)O` [CAS_5862], for which the Ki in experiment [1], in experiment [2], in experiment [3], in experiment [4], in experiment [5] and in experiment [6] was greater than 10 µM each time. Besides, the Ki in [7], in experiment [8], in experiment [9], in [10] and in experiment [11] was greater than 10 µM each time.

Regarding `CSCC[C@@H](N)C(=O)O` [CAS_6137], the Ki in experiment [1], in experiment [2], in experiment [3], in [4], in [5] and in experiment [6] was greater than 10 µM each time. For the same molecule, the Ki in experiment [7], in experiment [8], in experiment [9], in experiment [10] and in experiment [11] was greater than 10 µM each time.

Take `N[C@H](CCS(=O)(=O)O)C(=O)O` [D-homocysteic acid]: the Ki in experiment [1], in experiment [2], in [3], in experiment [4], in experiment [5] and in experiment [6] was greater than 10 µM throughout. Moreover, the Ki in experiment [7], in experiment [8], in [9], in [10] and in experiment [11] was greater than 10 µM throughout.

As for `N[C@H](CCS(=O)O)C(=O)O` [D-homocysteine sulfinic acid], the inhibition constant (Ki) in experiment [1], in experiment [2], in [3], in experiment [4], in experiment [5] and in experiment [6] was greater than 10 µM each time. In addition, the Ki in experiment [7], in experiment [8], in experiment [9], in experiment [10] and in experiment [11] was greater than 10 µM each time.

Turning to `N[C@@H]1CCSC1=O` [D-homocysteine thiolactone], the Ki in [1], in experiment [2], in experiment [3], in experiment [4], in experiment [5] and in experiment [6] was greater than 10 µM in each case. The Ki in [7], in experiment [8], in experiment [9], in experiment [10] and in experiment [11] was greater than 10 µM throughout.

For the molecule `N[C@H](CS(=O)(=O)O)C(=O)O` [L-cysteic acid], the Ki in [1], in experiment [2], in [3], in experiment [4], in experiment [5] and in [6] was greater than 10 µM each time. Also, the Ki in experiment [7], in experiment [8], in experiment [9], in experiment [10] and in experiment [11] was greater than 10 µM each time.

In the case of `N[C@@H](CCS(=O)O)C(=O)O` [L-homocysteine sulfinic acid], the Ki in experiment [1], in experiment [2], in experiment [3], in experiment [4], in [5] and in experiment [6] was greater than 10 µM in each case. The Ki in experiment [7], in experiment [8], in [9], in [10] and in experiment [11] was greater than 10 µM each time.

As for `N[C@H]1CCSC1=O` [NSC_134505], the Ki in [1], in [2], in experiment [3], in experiment [4], in experiment [5] and in experiment [6] was greater than 10 µM in each case. For the same molecule, the inhibition constant Ki in [7], in experiment [8], in [9], in experiment [10] and in experiment [11] was greater than 10 µM throughout.
